Measured values from patent US20230053864A1, “Methods for Identifying Modulators of G Protein-Coupled Receptors” (University of Miami, priority 2019, published 2023).
Values joined by “and” are separate entries in the source; they are usually repeats but may differ in a detail not shown here. Identical values can stand only once. “Also recorded” adds a separate entry of the source.

Columns and labels:
MTNR1A = molecular target: T1, MTNR1A (Homo sapiens, UniProt P48039); assay: dCyFIRscreen profiling and titrations in yeast GPCR-Gα reporter strains; assay type: cell-based
T1 construct: expressed in transfected cells; host or cells: Saccharomyces cerevisiae BY4741-derived GPCR-Gα reporter strains, X-2 landing pad
Procedure: (§1) Individual Gα reporter strains were grown in SCD LoFo pH=7.0 at 30° C. to an OD=1.0 in a 2.0 mL 96-well DeepWell block (Greiner; 780271-FD). Cells were normalized to an OD of 0.1 in SCD LoFo pH=7.0 using a Biomek NXp liquid-handling robot. 10× ligand/vehicle stocks were prepared (see Table 2) and 4 μL were distributed to each well of a 384-well plate (Greiner; 781096) in quadruplicate using a Biomek NXp. 36 μL normalized cells were distributed to each well containing the appropriate 10× ligand/vehicle. Plates were sealed with a breathable cover (Diversified Biotech; BERM-2000) and incubated at 30° C. Fluorescence readings were collected after 18 hours using a plate reader (ClarioStar, BMG LabTech, Offenburg, Germany) (bottom read, 10 flashes/well, excitation filter: 430-10 nm, dichroic filter: LP 458 nm, emission filter: 482-16 nm, gain=1300 (1500 for FIG. 1B.)). Absorbance readings were also collected after 18 hours using the same instrument (22 flashes/well, excitation filter: 600 nm).
(§2) All titration curves were analyzed using Prism software and the pharmacological fitting function log(agonist) vs. response—Variable slope (four parameters) (GraphPad Software, San Diego, USA).

ADRA2B = molecular target: T2, ADRA2B (Homo sapiens, UniProt P18089); assay: as above; assay type: cell-based
T2 construct: expressed in transfected cells; host or cells: Saccharomyces cerevisiae BY4741-derived GPCR-Gα reporter strains, X-2 landing pad
T2 sequence (P18089 1-450): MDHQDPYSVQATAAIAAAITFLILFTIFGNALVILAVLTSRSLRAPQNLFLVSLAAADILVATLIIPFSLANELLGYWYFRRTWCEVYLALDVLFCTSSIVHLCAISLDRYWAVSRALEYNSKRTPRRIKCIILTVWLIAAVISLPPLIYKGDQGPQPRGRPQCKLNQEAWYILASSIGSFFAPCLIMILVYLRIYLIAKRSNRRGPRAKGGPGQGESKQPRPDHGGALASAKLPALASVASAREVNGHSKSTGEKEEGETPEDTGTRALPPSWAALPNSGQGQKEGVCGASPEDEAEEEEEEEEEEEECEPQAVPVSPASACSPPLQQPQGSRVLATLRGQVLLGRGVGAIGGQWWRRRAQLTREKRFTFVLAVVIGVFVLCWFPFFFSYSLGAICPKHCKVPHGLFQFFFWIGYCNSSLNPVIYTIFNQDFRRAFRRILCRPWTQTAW
Procedure: dCyFIRscreen protocol. […] Cells were normalized to an OD of 0.1 in SCD LoFo pH=7.0 using a Biomek NXp liquid-handling robot. […] 36 μL normalized cells were distributed to each well containing the appropriate 10× ligand/vehicle. Plates were sealed with a breathable cover (Diversified Biotech; BERM-2000) and incubated at 30° C. […] Absorbance readings were also collected after 18 hours using the same instrument (22 flashes/well, excitation filter: 600 nm).
Titration Analyses. All titration curves were analyzed using Prism software and the pharmacological fitting function log(agonist) vs. response—Variable slope (four parameters) (GraphPad Software, San Diego, USA).

MTNR1B = molecular target: T3, MTNR1B (Homo sapiens, UniProt P49286); assay: dCyFIRscreen profiling in yeast GPCR-Gα reporter strains; assay type: cell-based
T3 construct: expressed in transfected cells; host or cells: Saccharomyces cerevisiae BY4741-derived GPCR-Gα reporter strains, X-2 landing pad
T3 sequence (P49286 1-362): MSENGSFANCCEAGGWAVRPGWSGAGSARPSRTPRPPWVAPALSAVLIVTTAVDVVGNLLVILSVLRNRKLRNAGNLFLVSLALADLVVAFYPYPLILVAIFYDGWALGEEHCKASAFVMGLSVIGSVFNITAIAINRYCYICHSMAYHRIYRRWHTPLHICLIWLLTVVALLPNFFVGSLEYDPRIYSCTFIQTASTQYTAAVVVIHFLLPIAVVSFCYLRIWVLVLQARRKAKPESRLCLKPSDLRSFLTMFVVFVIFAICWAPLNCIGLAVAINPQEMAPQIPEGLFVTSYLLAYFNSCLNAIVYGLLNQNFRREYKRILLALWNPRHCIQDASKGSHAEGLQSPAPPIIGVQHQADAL
Procedure: as §1, §2

[1] = system: 300-plex of GPCR-Gα reporter strains; assay: dCyFIRplex FACS sorting of agonist-treated 300-plex; assay type: cell-based, Saccharomyces cerevisiae; settings: following agonist treatment
Procedure: dCyFIRplex protocol. […] 10× ligand/vehicle stocks were added to individual wells of a DeepWell block. The consolidated 300-plex or control strains were then added to each well and grown in the presence of ligand/vehicle overnight, so that each culture would reach an OD=4.0 before dCyFIRplex profiling. Samples were washed with sterile ddH2O and normalized to an OD=2.0 in SCD LoFo pH=7.0. Tracer cells were added to each sample at a 1:301 ratio. The final mixture was then transferred into a glass sample tube (USA Scientific; 1450-2810) and used for cell sorting. A BD FACSAria-II cell sorter was used for all dCyFIRplex experiments to assess mTq2 (405 nm excitation, 450/50 nm emission) and mRuby3 fluorescence (535 nm excitation, 610/20 nm emission). A gating strategy was set using the three control samples (DI P1 mTq2, individual Gα reporter strains lacking an integrated receptor, and DI P1 mRuby3) such that tracer cells and any cell expressing mTq2 was sorted into a 14 mL collection tube (USA Scientific; 1485-2810) containing 500 μL YPD. Samples treated with water or 500 μM adenosine (well-characterized using dCyFIRscreen, inexpensive, and water-soluble) were used to build a standard curve measuring total events in the mRuby3 and mTq2 positive gates. The standard curve from a water-treated 300-plex was used to determine the number of tracer events that would correspond to 15,000 events in the mTq2 gate for a water-treated 300-plex. Each sample was sorted until the standardized tracer count was reached. Sorted cells were enriched by outgrowth in 5 mL YPD at 30° C. with shaking (200 rpm) for 18 hours. Cells were harvested by centrifugation at 3,000×g for 5 min, and resuspended in 1 mL ddH2O. Cells were either processed immediately for qPCR deconvolution or frozen in 100 μL aliquots for storage at −20° C. The set of samples comparatively deconvoluted by qPCR and NanoString methods were derived from aliquots of the same dCyFIRplex experiments. […]

GPR35 = molecular target: T4, GPR35 (Homo sapiens, UniProt Q9HC97); assay: dCyFIRscreen profiling and titrations in yeast GPCR-Gα reporter strains; assay type: cell-based
T4 construct: expressed in transfected cells; host or cells: Saccharomyces cerevisiae BY4741-derived GPCR-Gα reporter strains, X-2 landing pad
Procedure: as §1, §2

GPR65 = molecular target: T5, GPR65 (Homo sapiens, UniProt Q8IYL9); assay: as above; assay type: cell-based
T5 construct: expressed in transfected cells; host or cells: Saccharomyces cerevisiae BY4741-derived GPCR-Gα reporter strains, X-2 landing pad
Procedure: as §1, §2

GPR68 = molecular target: T6, GPR68 (Homo sapiens, UniProt Q15743); assay: as above; assay type: cell-based
T6 construct: expressed in transfected cells; host or cells: Saccharomyces cerevisiae BY4741-derived GPCR-Gα reporter strains, X-2 landing pad
Procedure: as §1, §2

ADORA2A = molecular target: T7, ADORA2A (Homo sapiens, UniProt P29274); assay: as above; assay type: cell-based
T7 construct: expressed in transfected cells; host or cells: Saccharomyces cerevisiae BY4741-derived GPCR-Gα reporter strains, X-2 landing pad
Procedure: as §1, §2

CNR2 = molecular target: T8, CNR2 (Homo sapiens, UniProt P34972); assay: dCyFIRscreen profiling in yeast GPCR-Gα reporter strains; assay type: cell-based
T8 construct: expressed in transfected cells; host or cells: Saccharomyces cerevisiae BY4741-derived GPCR-Gα reporter strains, X-2 landing pad
Procedure: as §1

HCAR3 = HCAR3 (Homo sapiens, UniProt P49019); assay: dCyFIRscreen profiling and titrations in yeast GPCR-Gα reporter strains; assay type: cell-based; set-up: expressed in transfected cells; settings: for EC50: titration, yeast GPCR-Gα reporter strain, this study
Procedure: as §1, §2

LPAR1 = molecular target: T9, LPAR1 (Homo sapiens, UniProt Q92633); assay: as above; assay type: cell-based
T9 construct: expressed in transfected cells; host or cells: Saccharomyces cerevisiae BY4741-derived GPCR-Gα reporter strains, X-2 landing pad
Procedure: as §1, §2

GPR4 = molecular target: T10, GPR4 (Homo sapiens, UniProt P46093); assay: dCyFIRscreen profiling in yeast GPCR-Gα reporter strains; assay type: cell-based
T10 construct: expressed in transfected cells; host or cells: Saccharomyces cerevisiae BY4741-derived GPCR-Gα reporter strains, X-2 landing pad
Procedure: as §1

HCAR2 = molecular target: T11, HCAR2 (Homo sapiens, UniProt Q8TDS4); assay: as above; assay type: cell-based
T11 construct: expressed in transfected cells; host or cells: Saccharomyces cerevisiae BY4741-derived GPCR-Gα reporter strains, X-2 landing pad
Procedure: as §1

LPAR4 = molecular target: T12, LPAR4 (Homo sapiens, UniProt Q99677); assay: as above; assay type: cell-based
T12 construct: expressed in transfected cells; host or cells: Saccharomyces cerevisiae BY4741-derived GPCR-Gα reporter strains, X-2 landing pad
Procedure: as §1

S1PR2 = molecular target: T13, S1PR2 (Homo sapiens, UniProt O95136); assay: dCyFIRscreen profiling and titrations in yeast GPCR-Gα reporter strains; assay type: cell-based
T13 construct: expressed in transfected cells; host or cells: Saccharomyces cerevisiae BY4741-derived GPCR-Gα reporter strains, X-2 landing pad
Procedure: as §1, §2

S1PR1 = molecular target: T14, S1PR1 (Homo sapiens, UniProt P21453); assay: as above; assay type: cell-based
T14 construct: expressed in transfected cells; host or cells: Saccharomyces cerevisiae BY4741-derived GPCR-Gα reporter strains, X-2 landing pad
Procedure: as §1, §2

HTR4 = molecular target: T15, HTR4 (Homo sapiens, UniProt Q13639); assay: as above; assay type: cell-based
T15 construct: expressed in transfected cells; host or cells: Saccharomyces cerevisiae BY4741-derived GPCR-Gα reporter strains, X-2 landing pad
Procedure: dCyFIRscreen protocol. Individual Gα reporter strains were grown in SCD LoFo pH=7.0 at 30° C. to an OD=1.0 in a 2.0 mL 96-well DeepWell block (Greiner; 780271-FD). Cells were normalized to an OD of 0.1 in SCD LoFo pH=7.0 using a Biomek NXp liquid-handling robot. 10× ligand/vehicle stocks were prepared (see Table 2) and 4 μL were distributed to each well of a 384-well plate (Greiner; 781096) in quadruplicate using a Biomek NXp. 36 μL normalized cells were distributed to each well containing the appropriate 10× ligand/vehicle. Plates were sealed with a breathable cover (Diversified Biotech; BERM-2000) and incubated at 30° C. Fluorescence readings were collected after 18 hours using a plate reader (ClarioStar, BMG LabTech, Offenburg, Germany) (bottom read, 10 flashes/well, excitation filter: 430-10 nm, dichroic filter: LP 458 nm, emission filter: 482-16 nm, gain=1300 (1500 for FIG. 1B.)). Absorbance readings were also collected after 18 hours using the same instrument (22 flashes/well, excitation filter: 600 nm).
as §2

[2] = titration, yeast GPCR-Gα reporter strain

T6 sequence (Q15743 whole entry): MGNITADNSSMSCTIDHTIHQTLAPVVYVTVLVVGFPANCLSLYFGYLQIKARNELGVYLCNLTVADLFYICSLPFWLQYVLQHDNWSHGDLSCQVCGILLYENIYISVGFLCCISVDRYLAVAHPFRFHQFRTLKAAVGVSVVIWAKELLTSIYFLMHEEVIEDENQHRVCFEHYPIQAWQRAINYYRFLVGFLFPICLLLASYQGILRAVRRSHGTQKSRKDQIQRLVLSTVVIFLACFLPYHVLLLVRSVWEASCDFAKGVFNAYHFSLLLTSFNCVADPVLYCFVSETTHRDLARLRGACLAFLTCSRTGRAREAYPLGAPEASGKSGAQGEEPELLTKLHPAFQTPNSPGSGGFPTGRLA
Sequence of HCAR3 (P49019 whole entry): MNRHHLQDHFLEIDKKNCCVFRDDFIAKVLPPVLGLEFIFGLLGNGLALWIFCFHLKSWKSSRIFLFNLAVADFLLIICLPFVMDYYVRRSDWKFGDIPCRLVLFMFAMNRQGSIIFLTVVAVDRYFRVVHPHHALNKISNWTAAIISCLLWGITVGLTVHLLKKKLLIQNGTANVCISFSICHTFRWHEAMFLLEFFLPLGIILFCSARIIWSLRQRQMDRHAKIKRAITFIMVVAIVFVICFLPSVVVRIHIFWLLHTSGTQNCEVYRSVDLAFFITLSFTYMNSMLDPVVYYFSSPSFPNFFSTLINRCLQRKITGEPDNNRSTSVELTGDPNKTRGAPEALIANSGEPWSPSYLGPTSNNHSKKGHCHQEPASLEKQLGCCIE
T1 sequence (P48039 whole entry): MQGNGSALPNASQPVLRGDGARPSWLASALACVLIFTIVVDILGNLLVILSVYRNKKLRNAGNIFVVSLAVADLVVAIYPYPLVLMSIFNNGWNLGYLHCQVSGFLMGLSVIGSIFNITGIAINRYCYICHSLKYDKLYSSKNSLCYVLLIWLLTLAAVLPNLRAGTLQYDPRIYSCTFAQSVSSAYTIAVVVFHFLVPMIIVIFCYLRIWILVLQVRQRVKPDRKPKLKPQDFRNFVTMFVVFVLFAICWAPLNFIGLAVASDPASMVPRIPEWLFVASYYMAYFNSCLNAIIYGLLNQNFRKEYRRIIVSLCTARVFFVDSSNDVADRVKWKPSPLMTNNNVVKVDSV
T7 sequence (P29274 whole entry): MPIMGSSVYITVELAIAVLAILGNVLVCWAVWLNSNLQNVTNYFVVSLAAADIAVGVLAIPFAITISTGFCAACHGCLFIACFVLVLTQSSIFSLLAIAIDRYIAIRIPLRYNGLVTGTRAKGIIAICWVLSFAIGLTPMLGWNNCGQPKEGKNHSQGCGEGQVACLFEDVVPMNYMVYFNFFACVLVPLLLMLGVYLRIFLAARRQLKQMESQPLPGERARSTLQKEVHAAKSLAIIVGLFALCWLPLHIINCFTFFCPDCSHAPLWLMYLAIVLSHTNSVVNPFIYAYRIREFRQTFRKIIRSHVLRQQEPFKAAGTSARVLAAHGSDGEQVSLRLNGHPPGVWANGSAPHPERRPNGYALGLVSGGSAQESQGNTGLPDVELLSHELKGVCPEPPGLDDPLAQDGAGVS
T4 sequence (Q9HC97 whole entry): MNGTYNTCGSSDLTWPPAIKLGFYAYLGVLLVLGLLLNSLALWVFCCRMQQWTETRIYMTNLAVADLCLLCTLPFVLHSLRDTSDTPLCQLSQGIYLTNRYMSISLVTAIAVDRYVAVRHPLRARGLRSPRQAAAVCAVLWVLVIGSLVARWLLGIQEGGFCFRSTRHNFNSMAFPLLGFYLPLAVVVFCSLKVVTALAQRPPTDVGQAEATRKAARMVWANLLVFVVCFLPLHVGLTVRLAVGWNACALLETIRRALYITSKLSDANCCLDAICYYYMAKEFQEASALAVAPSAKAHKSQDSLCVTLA
T5 sequence (Q8IYL9 whole entry): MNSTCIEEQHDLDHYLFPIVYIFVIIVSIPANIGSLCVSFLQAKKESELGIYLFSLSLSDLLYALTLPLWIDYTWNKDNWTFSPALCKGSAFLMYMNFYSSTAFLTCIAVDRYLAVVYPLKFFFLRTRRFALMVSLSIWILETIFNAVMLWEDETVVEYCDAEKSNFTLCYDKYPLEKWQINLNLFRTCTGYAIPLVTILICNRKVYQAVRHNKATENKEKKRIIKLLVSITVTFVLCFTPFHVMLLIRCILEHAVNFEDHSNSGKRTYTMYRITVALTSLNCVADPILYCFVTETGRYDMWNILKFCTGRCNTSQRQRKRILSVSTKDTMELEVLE
T10 sequence (P46093 whole entry): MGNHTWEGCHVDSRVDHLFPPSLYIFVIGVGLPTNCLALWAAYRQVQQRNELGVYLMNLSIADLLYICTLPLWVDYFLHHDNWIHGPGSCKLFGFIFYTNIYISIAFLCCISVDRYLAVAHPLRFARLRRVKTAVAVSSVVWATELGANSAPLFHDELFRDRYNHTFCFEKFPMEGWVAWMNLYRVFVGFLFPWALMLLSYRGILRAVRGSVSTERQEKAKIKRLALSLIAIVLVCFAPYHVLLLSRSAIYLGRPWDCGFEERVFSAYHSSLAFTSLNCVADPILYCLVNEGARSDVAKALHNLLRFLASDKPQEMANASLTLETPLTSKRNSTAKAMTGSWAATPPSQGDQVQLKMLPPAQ
T15 sequence (Q13639 whole entry): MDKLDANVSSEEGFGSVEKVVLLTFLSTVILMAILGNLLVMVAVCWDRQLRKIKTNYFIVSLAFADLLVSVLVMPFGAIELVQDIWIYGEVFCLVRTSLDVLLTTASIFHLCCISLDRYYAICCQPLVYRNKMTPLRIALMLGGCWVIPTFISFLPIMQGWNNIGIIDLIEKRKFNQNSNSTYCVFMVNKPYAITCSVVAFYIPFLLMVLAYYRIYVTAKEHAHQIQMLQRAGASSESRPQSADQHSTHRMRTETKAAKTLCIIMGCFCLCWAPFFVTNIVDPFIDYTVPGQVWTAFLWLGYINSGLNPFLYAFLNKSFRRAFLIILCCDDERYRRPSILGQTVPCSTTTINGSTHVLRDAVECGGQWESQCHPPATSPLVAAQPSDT
T13 sequence (O95136 whole entry): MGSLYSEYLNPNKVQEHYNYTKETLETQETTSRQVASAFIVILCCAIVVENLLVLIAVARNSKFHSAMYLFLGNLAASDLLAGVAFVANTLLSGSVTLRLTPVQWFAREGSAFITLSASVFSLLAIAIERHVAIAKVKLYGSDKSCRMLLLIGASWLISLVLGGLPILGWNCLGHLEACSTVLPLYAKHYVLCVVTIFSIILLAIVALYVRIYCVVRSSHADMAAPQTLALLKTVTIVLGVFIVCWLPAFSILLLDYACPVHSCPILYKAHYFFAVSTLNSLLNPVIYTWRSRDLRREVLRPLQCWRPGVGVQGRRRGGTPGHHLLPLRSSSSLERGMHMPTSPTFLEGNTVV
T11 sequence (Q8TDS4 whole entry): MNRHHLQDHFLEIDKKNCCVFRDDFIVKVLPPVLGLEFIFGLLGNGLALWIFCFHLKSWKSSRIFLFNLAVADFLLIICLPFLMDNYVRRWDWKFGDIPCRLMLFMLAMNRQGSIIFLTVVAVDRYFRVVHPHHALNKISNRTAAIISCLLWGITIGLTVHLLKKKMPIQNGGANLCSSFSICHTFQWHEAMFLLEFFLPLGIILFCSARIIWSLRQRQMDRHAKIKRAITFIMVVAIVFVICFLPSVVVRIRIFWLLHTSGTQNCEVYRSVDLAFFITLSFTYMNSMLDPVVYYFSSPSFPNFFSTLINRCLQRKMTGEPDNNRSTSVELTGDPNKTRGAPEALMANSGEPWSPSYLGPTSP
T8 sequence (P34972 whole entry): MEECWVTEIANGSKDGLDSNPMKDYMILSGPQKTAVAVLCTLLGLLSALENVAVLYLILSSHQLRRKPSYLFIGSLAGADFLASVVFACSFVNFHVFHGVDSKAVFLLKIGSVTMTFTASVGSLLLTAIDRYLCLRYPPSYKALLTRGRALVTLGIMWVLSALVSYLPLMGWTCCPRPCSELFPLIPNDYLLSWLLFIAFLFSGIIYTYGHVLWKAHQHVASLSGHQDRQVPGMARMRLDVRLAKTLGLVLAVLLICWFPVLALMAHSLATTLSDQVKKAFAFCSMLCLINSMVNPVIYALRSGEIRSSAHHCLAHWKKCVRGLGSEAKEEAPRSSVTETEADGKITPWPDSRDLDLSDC
T12 sequence (Q99677 whole entry): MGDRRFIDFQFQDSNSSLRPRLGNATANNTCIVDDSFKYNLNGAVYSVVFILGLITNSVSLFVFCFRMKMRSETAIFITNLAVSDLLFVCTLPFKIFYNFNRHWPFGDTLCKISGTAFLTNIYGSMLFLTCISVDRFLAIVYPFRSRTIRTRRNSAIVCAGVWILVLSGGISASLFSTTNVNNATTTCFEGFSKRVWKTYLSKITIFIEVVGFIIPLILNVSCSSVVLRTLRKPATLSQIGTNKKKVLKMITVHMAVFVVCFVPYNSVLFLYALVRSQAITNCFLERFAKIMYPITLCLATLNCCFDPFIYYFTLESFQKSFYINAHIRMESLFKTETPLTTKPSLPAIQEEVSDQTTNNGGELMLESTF
T9 sequence (Q92633 whole entry): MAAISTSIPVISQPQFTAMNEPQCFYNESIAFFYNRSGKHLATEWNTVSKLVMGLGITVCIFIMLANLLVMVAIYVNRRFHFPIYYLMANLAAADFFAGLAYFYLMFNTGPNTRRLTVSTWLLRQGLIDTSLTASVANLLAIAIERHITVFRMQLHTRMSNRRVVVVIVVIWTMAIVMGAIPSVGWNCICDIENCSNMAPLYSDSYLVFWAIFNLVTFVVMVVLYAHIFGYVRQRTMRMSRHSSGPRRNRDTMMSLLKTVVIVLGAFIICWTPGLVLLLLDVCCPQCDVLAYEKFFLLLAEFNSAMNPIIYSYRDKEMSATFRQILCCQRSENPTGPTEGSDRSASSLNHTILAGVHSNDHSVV

NCCc1c[nH]c2ccc(O)cc12 [serotonin]
activity at MTNR1A in words (mode of action, potency range) (MTNR1A): micromolar interactions | EC50 (MTNR1A; [2]): 60 µM | activity at ADRA2B in words (mode of action, potency range) (ADRA2B): micromolar interactions | activity at MTNR1B in words (mode of action) (MTNR1B): not find that serotonin agonized

CCCCCCCCCCCCC/C=C/[C@@H](O)[C@@H](N)COP(=O)(O)O [sphingosine-1-phosphate]
active cell pool, fraction of cell-sorting events for the 300-plex [1]: 1.8%

O[C@H]1[C@H](O)[C@@H](O)[C@H](O)[C@@H](O)[C@H]1O [inositol]
activity at GPR35 in words (mode of action, potency range) (GPR35): increase receptor signaling; also recorded: PAM-agonist | activity at GPR65 in words (mode of action) (GPR65): increase receptor signaling and PAM-agonist and PAMs | activity at GPR68 in words (mode of action) (GPR68): increase receptor signaling and PAM-agonist and PAMs | activity at ADORA2A in words (mode of action) (ADORA2A): increase receptor signaling; also recorded: NAM-agonist | activity at CNR2 in words (mode of action) (CNR2): increase receptor signaling

O=C(O)c1cc(=O)c2ccccc2[nH]1 [KYNA, kynurenic acid]
activity at GPR35 in words (mode of action, potency range) (GPR35): activated | EC50 (GPR35; [2]): 795 µM | activity at ADRA2B in words (mode of action, potency range) (ADRA2B): micromolar interactions; also recorded: negative allosteric modulator | activity at HCAR3 in words (mode of action, potency range) (HCAR3): micromolar interactions; also recorded: orthosteric agonist | fold higher affinity (lower EC50) for HCAR3 compared to GPR35 (HCAR3; head-to-head titrations of GPR35 and HCAR3): 18 fold and 18.6 fold | EC50 (HCAR3): 41 µM | fold lower EC50 at HCAR3 than phenylpropanoic acid (HCAR3; versus literature EC50 of phenylpropanoic acid): 5.1 fold

C[C@]12CC[C@@H](O)C[C@@H]1CC[C@@H]1[C@@H]2CC[C@]2(C)C(=O)CC[C@@H]12 [androsterone]
activity at GPR35 in words (mode of action, potency range) (GPR35): increase receptor signaling | activity at LPAR1 in words (mode of action) (LPAR1): increase receptor signaling | activity at GPR68 in words (mode of action) (GPR68): increase receptor signaling and PAMs | activity at ADORA2A in words (mode of action) (ADORA2A): increase receptor signaling | activity at GPR4 in words (mode of action) (GPR4): increase receptor signaling and PAMs | activity at HCAR2 in words (mode of action) (HCAR2): increase receptor signaling | activity at LPAR4 in words (mode of action) (LPAR4): increase receptor signaling | activity at HCAR3 in words (mode of action, potency range) (HCAR3): increase receptor signaling and PAMs

NCCc1ccc(O)c(O)c1 [dopamine]
activity at ADRA2B in words (mode of action, potency range) (ADRA2B): micromolar agonist

CCCCCC(O)CC(=O)O (stereo not drawn) [3-hydroxyoctanoic acid]
fold higher EC50 at HCAR3 observed by Colosimo et al. versus this study (HCAR3; 304 μM versus 24 μM): 12.6 fold | EC50 (HCAR3): 24 µM

lysophosphatidic acid [LPA]
activity at S1PR2 in words (mode of action, potency range) (S1PR2): micromolar interactions; also recorded: higher EC50 values compared to LPAR1 | activity at S1PR1 in words (mode of action, potency range) (S1PR1): higher EC50 values compared to LPAR1

NCCc1c[nH]c2ccccc12 [tryptamine]
activity at MTNR1A in words (mode of action, potency range) (MTNR1A): did not activate | activity at ADRA2B in words (mode of action, potency range) (ADRA2B): did activate | EC50 at ADRA2B (in words) (ADRA2B; titration): micromolar range | activity at HTR4 in words (mode of action) (HTR4): did activate | EC50 at HTR4 (in words) (HTR4; titration): micromolar range | activity at MTNR1B in words (mode of action) (MTNR1B): did not activate
